Experimental findings from PubChem BioAssay (NCI) are described below.

Some test systems named below: SN12C renal; T-47D breast; SK-MEL-5 melanoma; 786-0 renal; HOP-62 NSCLC; UO-31 renal; HT29 colon; MDA-MB-231 breast; RPMI-8226 leukemia; SK-OV-3 ovarian; K-562 leukemia; HCC-2998 colon; MOLT-4 leukemia; LOX IMVI melanoma; SNB-19 CNS; CCRF-CEM leukemia; OVCAR-8 ovarian.
What all share (assay): NCI anticancer screen, dose series, 48 h

Each structure is given as a SMILES string.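 Five concentrations, 48 hours, 96-well plates. At the TGI there is no net growth.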

For the compound `COc1cc(/C=C2\C[C@H]3[C@@H]4CCc5cc(O)ccc5[C@H]4CC[C@]3(C)C2=O)cc(OC)c1OC`, the TGI with SN12C renal turned out to be 39.5 µM; in the assay on T-47D breast it was 38.5 µM; with SK-MEL-5 melanoma it was 38.4 µM; in the assay on 786-0 renal, 57.7 µM; in the assay on HOP-62 NSCLC, 27.9 µM; in the assay with UO-31 renal, 29.4 µM. Also, the TGI was found to be 25 µM with HT29 colon; 43.9 µM with MDA-MB-231 breast; 28.9 µM with RPMI-8226 leukemia; 48.3 µM with SK-OV-3 ovarian; 24.8 µM with K-562 leukemia; 35.9 µM in the assay on HCC-2998 colon. The TGI with MOLT-4 leukemia amounted to 23.1 µM; with LOX IMVI melanoma it was 30.7 µM; with SNB-19 CNS it was 47.1 µM; in the assay with CCRF-CEM leukemia it was 27.4 µM; in the assay with OVCAR-8 ovarian, 30.1 µM.

In the case of `CCOC(=O)c1c(NC(=O)c2cccs2)sc2c1CCCC2`, the TGI with SN12C renal was more than 100 µM; with T-47D breast, more than 100 µM; in the assay with SK-MEL-5 melanoma it was more than 100 µM; in the assay on 786-0 renal it was more than 100 µM; in the assay on HOP-62 NSCLC, 55.3 µM; in the assay on UO-31 renal, more than 100 µM. The TGI is more than 100 µM in the assay on HT29 colon; 69.8 µM with MDA-MB-231 breast; more than 100 µM in the assay with RPMI-8226 leukemia; 79.5 µM with SK-OV-3 ovarian; more than 100 µM in the assay with K-562 leukemia; more than 100 µM with HCC-2998 colon. The TGI in the assay with MOLT-4 leukemia is more than 100 µM; in the assay on LOX IMVI melanoma, more than 100 µM; in the assay with SNB-19 CNS, more than 81.2 µM; with CCRF-CEM leukemia, more than 100 µM; in the assay on OVCAR-8 ovarian, more than 100 µM.

As to `COC(=O)C1=C(C)NC2=C(C(=O)c3ccccc32)C1c1cn(-c2ccccc2)nc1-c1ccccc1` (stereo unspecified), the TGI in the assay on SN12C renal, in the assay with T-47D breast, in the assay on SK-MEL-5 melanoma, in the assay on 786-0 renal, with HOP-62 NSCLC and in the assay on UO-31 renal was more than 100 µM in each case. Moreover, the TGI in the assay with HT29 colon is more than 30.5 µM; in the assay with MDA-MB-231 breast it was more than 100 µM; with RPMI-8226 leukemia, more than 100 µM; in the assay with SK-OV-3 ovarian, more than 100 µM; in the assay on K-562 leukemia, more than 100 µM; with HCC-2998 colon, more than 100 µM. The TGI was 44.6 µM in the assay with MOLT-4 leukemia; more than 100 µM in the assay on LOX IMVI melanoma; more than 100 µM with SNB-19 CNS; more than 100 µM in the assay with CCRF-CEM leukemia; more than 100 µM in the assay with OVCAR-8 ovarian.

`CCCn1c2ccccc2c2ccc3c(c21)C(=O)C=CC3=O`: the TGI is more than 7.53 µM in the assay on SN12C renal; 5.44 µM in the assay with T-47D breast; more than 10 µM in the assay with SK-MEL-5 melanoma; 3.27 µM in the assay on 786-0 renal; more than 10 µM in the assay on HOP-62 NSCLC; more than 10 µM in the assay with UO-31 renal. The TGI was more than 10 µM in the assay with HT29 colon; 5.08 µM in the assay on MDA-MB-231 breast; 5.4 µM with RPMI-8226 leukemia; more than 10 µM in the assay on SK-OV-3 ovarian; 2.24 µM in the assay with K-562 leukemia; more than 10 µM in the assay on HCC-2998 colon. Also, the TGI was 2.26 µM in the assay on MOLT-4 leukemia; more than 10 µM with LOX IMVI melanoma; more than 10 µM in the assay with SNB-19 CNS; 0.47 µM in the assay with CCRF-CEM leukemia; more than 6.96 µM in the assay with OVCAR-8 ovarian.

As to `O=C(NC(Cc1c[nH]c2ccccc12)C(=O)Nc1ccc(Br)cc1)OCc1ccccc1` (stereo unspecified), the TGI in the assay with SN12C renal turned out to be 22.5 µM; with T-47D breast it was 53 µM; with SK-MEL-5 melanoma, 22.5 µM; in the assay with 786-0 renal, 25.2 µM; in the assay on HOP-62 NSCLC, 23.7 µM; with UO-31 renal it was 27.4 µM. Besides, the TGI in the assay on HT29 colon is 21.6 µM; in the assay on MDA-MB-231 breast, 22.9 µM; with RPMI-8226 leukemia, 34.2 µM; with SK-OV-3 ovarian, 46.3 µM; in the assay with K-562 leukemia, 51.3 µM; in the assay on HCC-2998 colon, 23.1 µM. For the same compound, the TGI in the assay on MOLT-4 leukemia was determined as 38.9 µM; in the assay on LOX IMVI melanoma, 22.7 µM; in the assay on SNB-19 CNS, 90.8 µM; in the assay on CCRF-CEM leukemia, 36 µM; in the assay on OVCAR-8 ovarian, 30.3 µM.

With `CC(=O)Nc1ccc(N2C(=O)/C(=C\c3cccc(Oc4ccccc4)c3)S(=O)(=O)C2c2ccccc2)cc1` (stereo unspecified), the TGI in the assay on SN12C renal, with T-47D breast, in the assay with SK-MEL-5 melanoma, with 786-0 renal, with HOP-62 NSCLC and in the assay on UO-31 renal was more than 100 µM in each case. Also, the TGI in the assay with HT29 colon is more than 100 µM; in the assay on MDA-MB-231 breast it was more than 100 µM; with RPMI-8226 leukemia, 66.8 µM; in the assay on SK-OV-3 ovarian it was more than 100 µM; with K-562 leukemia, more than 100 µM; in the assay on HCC-2998 colon, more than 100 µM. Besides, the TGI was 98.4 µM in the assay with MOLT-4 leukemia; more than 100 µM with LOX IMVI melanoma; more than 100 µM in the assay with SNB-19 CNS; more than 100 µM in the assay with CCRF-CEM leukemia; more than 100 µM with OVCAR-8 ovarian.

Turning to `CN(Cc1cnc2nc(N)nc(N)c2n1)c1ccc(C(=O)NC(CCC(=O)NCCC(P(=O)(O)O)P(=O)(O)O)C(=O)O)cc1` (stereo unspecified), the TGI in the assay with SN12C renal, in the assay on T-47D breast, in the assay with SK-MEL-5 melanoma, in the assay on 786-0 renal, in the assay on HOP-62 NSCLC and with UO-31 renal was more than 100 µM throughout. The TGI in the assay on HT29 colon, in the assay on MDA-MB-231 breast, in the assay with RPMI-8226 leukemia, with SK-OV-3 ovarian, in the assay with K-562 leukemia and in the assay on HCC-2998 colon was more than 100 µM in each case. Also, the TGI with MOLT-4 leukemia, in the assay on LOX IMVI melanoma, in the assay on SNB-19 CNS, with CCRF-CEM leukemia and in the assay on OVCAR-8 ovarian was more than 100 µM throughout.

Turning to `COC(=O)CC(C#N)(OP1(=O)OC(c2ccccc2)C(C)N1C)c1ccccc1` (stereo unspecified), the TGI with SN12C renal is 77 µM; with T-47D breast it was 96.7 µM; in the assay on SK-MEL-5 melanoma, more than 100 µM; in the assay with 786-0 renal it was 83 µM; in the assay with HOP-62 NSCLC, more than 100 µM; in the assay with UO-31 renal, 27.2 µM. For the same compound, the TGI with HT29 colon is 53.2 µM; in the assay with MDA-MB-231 breast it was more than 100 µM; in the assay on RPMI-8226 leukemia, 70.2 µM; with SK-OV-3 ovarian, more than 100 µM; in the assay with K-562 leukemia, 78.7 µM; in the assay on HCC-2998 colon, 31.6 µM. The TGI is 59.2 µM in the assay on MOLT-4 leukemia; 53.4 µM in the assay with LOX IMVI melanoma; more than 100 µM in the assay on SNB-19 CNS; 38.7 µM in the assay on CCRF-CEM leukemia; 67.1 µM in the assay on OVCAR-8 ovarian.

In the case of `Nc1ncnc2c1ccn2C/C=C\CO`, the TGI with SN12C renal, in the assay with T-47D breast, with SK-MEL-5 melanoma, in the assay with 786-0 renal, with HOP-62 NSCLC and with UO-31 renal was more than 100 µM in each case. Besides, the TGI with HT29 colon, in the assay with MDA-MB-231 breast, in the assay on RPMI-8226 leukemia, in the assay with SK-OV-3 ovarian, with K-562 leukemia and in the assay with HCC-2998 colon was more than 100 µM in each case. Further, the TGI in the assay with MOLT-4 leukemia, in the assay on LOX IMVI melanoma, in the assay on SNB-19 CNS, with CCRF-CEM leukemia and in the assay on OVCAR-8 ovarian was more than 100 µM each time.

For the compound `CC(C)CC1C(=O)NCCC(NC(=O)C(Cc2ccc(OC(C)(C)C)cc2)NC(=O)OC(C)(C)C)C(=O)NC(Cc2ccccc2)C(=O)NC(Cc2ccccc2)NC1=O` (stereo unspecified), the TGI was 39.8 µM in the assay with SN12C renal; 22.2 µM in the assay on T-47D breast; 85.9 µM in the assay with SK-MEL-5 melanoma; 4.92 µM with 786-0 renal; 37.7 µM in the assay with HOP-62 NSCLC; more than 100 µM in the assay with UO-31 renal. The TGI is 19.6 µM with HT29 colon; 19.9 µM in the assay on MDA-MB-231 breast; 54.4 µM in the assay with RPMI-8226 leukemia; 45.9 µM with SK-OV-3 ovarian; 10.3 µM in the assay on K-562 leukemia; 35.4 µM with HCC-2998 colon. Besides, the TGI in the assay on MOLT-4 leukemia turned out to be 3.48 µM; in the assay with LOX IMVI melanoma, 19.3 µM; with SNB-19 CNS it was 42.4 µM; in the assay with CCRF-CEM leukemia, 55 µM; in the assay on OVCAR-8 ovarian it was 20.6 µM.

On to `COc1ccc(N2C(=O)C(=O)N(c3ccccc3[N+](=O)[O-])C2=S)cc1`, for which the TGI is more than 100 µM in the assay with SN12C renal; 74.4 µM in the assay with T-47D breast; 32.5 µM in the assay on SK-MEL-5 melanoma; more than 100 µM with 786-0 renal; more than 100 µM in the assay on HOP-62 NSCLC; more than 100 µM in the assay with UO-31 renal. The TGI with HT29 colon was more than 100 µM; in the assay on MDA-MB-231 breast, more than 100 µM; with RPMI-8226 leukemia, 94.2 µM; in the assay on SK-OV-3 ovarian, 86.1 µM; with K-562 leukemia it was more than 100 µM; with HCC-2998 colon it was more than 100 µM. Moreover, the TGI is more than 100 µM with MOLT-4 leukemia; 32.4 µM in the assay on LOX IMVI melanoma; more than 100 µM in the assay with SNB-19 CNS; more than 100 µM in the assay with CCRF-CEM leukemia; 44.9 µM in the assay on OVCAR-8 ovarian.

For the compound `C=C(CCC/C(C)=C/C=C/[C@]1(C)CCCc2ccoc21)CC(=O)O`, the TGI in the assay on SN12C renal, in the assay with T-47D breast, with SK-MEL-5 melanoma, in the assay on 786-0 renal, in the assay on HOP-62 NSCLC and in the assay on UO-31 renal was more than 100 µM each time. Also, the TGI in the assay with HT29 colon, with MDA-MB-231 breast, with RPMI-8226 leukemia, in the assay on SK-OV-3 ovarian, in the assay with K-562 leukemia and in the assay on HCC-2998 colon was more than 100 µM in each case. Moreover, the TGI with MOLT-4 leukemia, in the assay with LOX IMVI melanoma, with SNB-19 CNS, in the assay on CCRF-CEM leukemia and with OVCAR-8 ovarian was more than 100 µM in each case.

Regarding `Nc1ccc(-c2nc3cc(F)ccc3s2)cc1Cl`, the TGI in the assay on SN12C renal is more than 71.8 µM; in the assay with T-47D breast it was more than 70.1 µM; in the assay on SK-MEL-5 melanoma, more than 100 µM; in the assay on 786-0 renal it was more than 100 µM; in the assay with HOP-62 NSCLC it was 46.8 µM; in the assay with UO-31 renal it was more than 100 µM. For the same compound, the TGI with HT29 colon is more than 100 µM; in the assay on MDA-MB-231 breast it was more than 100 µM; in the assay with RPMI-8226 leukemia, more than 100 µM; with SK-OV-3 ovarian it was 52.6 µM; with K-562 leukemia, more than 100 µM; with HCC-2998 colon, 0.0255 µM. The TGI in the assay with MOLT-4 leukemia, in the assay with LOX IMVI melanoma, in the assay on SNB-19 CNS, with CCRF-CEM leukemia and in the assay on OVCAR-8 ovarian was more than 100 µM throughout.
